From patent US20260364184A1, “COMPOUND BASED ON OXOISOINDOLINYL-SUBSTITUTED TETRAHYDROPYRIMIDINE-DIONE AND USE THEREOF” (GLUETACS THERAPEUTICS (SHANGHAI) CO., LTD., priority 2023, published 2026)

Key:
[1] = target: T1, IRAK4 (Homo sapiens, UniProt Q9NWZ3); test: Western blot degradation of IRAK4; type: cell-based; conditions: hPBMC Cell; 24 hours
T1 construct: expression of target proteins in cells; endogenous in cells
T1 sequence (Q9NWZ3 1-460): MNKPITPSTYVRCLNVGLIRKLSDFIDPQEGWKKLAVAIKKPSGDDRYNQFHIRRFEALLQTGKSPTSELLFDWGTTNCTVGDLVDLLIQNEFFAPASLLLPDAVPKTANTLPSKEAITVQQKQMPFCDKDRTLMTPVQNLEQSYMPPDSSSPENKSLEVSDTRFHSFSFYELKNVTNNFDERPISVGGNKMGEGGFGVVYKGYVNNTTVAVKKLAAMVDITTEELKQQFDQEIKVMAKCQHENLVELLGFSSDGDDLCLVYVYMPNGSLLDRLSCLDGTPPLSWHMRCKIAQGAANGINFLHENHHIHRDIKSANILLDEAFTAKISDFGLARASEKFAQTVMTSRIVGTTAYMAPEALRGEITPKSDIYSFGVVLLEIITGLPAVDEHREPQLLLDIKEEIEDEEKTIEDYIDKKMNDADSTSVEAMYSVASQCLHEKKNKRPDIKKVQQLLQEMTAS
Method in brief: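 Immunoblot of drug-treated versus DMSO-treated cell lysates, with densitometric quantification. Values: DC50 (50% band loss, fitted) and loading-control-normalised % remaining or degradation.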

[2] = target: T2, human Cereblon WT GST-tagged protein (CRBN) (Homo sapiens, UniProt Q96SW2); test: CRBN binding by HTRF (Cereblon binding kit); conditions: for inhibition at 0.5 µM: read-out: Inhibition Rate at 0.5 μM (%); for inhibition at 2 µM: read-out: Inhibition Rate at 2 μM (%)
T2 construct: purchased CISBIO 64BDCRBNPEH
Method in brief: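 GST-tagged human Cereblon WT was incubated 3 h at room temperature with compound, thalidomide-Re tracer and Eu anti-GST antibody. Final compound concentrations were 10 to 0.00064 µM (7 points) or 2 and 0.5 µM. Inhibition rate was calculated from HTRF 665/620 nm ratios versus solvent and blank controls.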

T2 sequence (Q96SW2 whole entry): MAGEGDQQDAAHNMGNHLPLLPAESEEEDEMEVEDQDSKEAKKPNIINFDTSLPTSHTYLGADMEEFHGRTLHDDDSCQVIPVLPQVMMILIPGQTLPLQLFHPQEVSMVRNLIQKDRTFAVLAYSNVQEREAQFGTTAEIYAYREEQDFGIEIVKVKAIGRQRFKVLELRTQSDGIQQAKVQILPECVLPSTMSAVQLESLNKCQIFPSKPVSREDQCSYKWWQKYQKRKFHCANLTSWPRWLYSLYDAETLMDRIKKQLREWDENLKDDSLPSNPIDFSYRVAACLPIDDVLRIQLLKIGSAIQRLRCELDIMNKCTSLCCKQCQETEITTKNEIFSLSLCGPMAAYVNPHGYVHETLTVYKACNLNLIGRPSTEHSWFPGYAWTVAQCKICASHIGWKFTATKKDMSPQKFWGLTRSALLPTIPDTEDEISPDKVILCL

Degradation of substrate protein IRAK4 (substrate protein remaining %) [1] | Inhibition Rate at 0.5 μM (%) [2] | Inhibition Rate at 2 μM (%) [2] | inhibition at 0.5 µM [2] [%] | inhibition at 2 µM [2] [%] | SMILES
A (0%≤substrate protein remaining %≤80%) | a3 (30% < a3 ≤ 40%) | a6 (60% < a6 ≤ 80%) | – | – | O=C1CCN(N2Cc3cc(CN4CCC(n5cc(NC(=O)c6coc(-c7ccnc(NCC8CC8)c7)n6)c(C(F)F)n5)CC4)ccc3C2=O)C(=O)N1 [GT-04951, 2-(2-((cyclopropylmethyl)amino)pyridin-4-yl)-N-(3-(difluoromethyl)-1-(1-((2-(2,4-dioxotetrahydropyrimidin-1(2H)-yl)-1-oxoisoindolin-5-yl)methyl)piperidin-4-yl)-1H-pyrazol-4-yl) oxazole-4-carboxamide]
A (0%≤substrate protein remaining %≤80%) | a2 (20% < a2 ≤ 30%) | a6 (60% < a6 ≤ 80%) | – | – | O=C1CCN(N2Cc3cc(CN4CCC(n5cc(NC(=O)c6cnn7ccc(N8C[C@H]9C[C@@H]8CO9)nc67)c(C(F)F)n5)CC4)ccc3C2=O)C(=O)N1 [GT-05028, 5-((1R,4R)-2-oxa-5-azabicyclo[2.2.1]heptan-5-yl)-N-(3-(difluoromethyl)-1-(1-((2-(2,4-dioxotetrahydropyrimidin-1(2H)-yl)-1-oxoisoindolin-5-yl)methyl)piperidin-4-yl)-1H-pyrazol-4-yl)pyrazolo[1,5-a]pyrimidine-3-carboxamide]
– | – | – | 30 to 40 | 30 to 40 | N#Cc1ccc(O[C@H]2CC[C@H](NC(=O)c3ccc(N4CCC(CN5C[C@@H]6C[C@H]5CN6c5ccc6c(c5)C(=O)N(N5CCC(=O)NC5=O)C6=O)CC4)nn3)CC2)cc1Cl [GT-05226, N-((1r,4r)-4-(3-chloro-4-cyanophenoxy)cyclohexyl)-6-(4-(((1S,4S)-5-(2-(2,4-dioxotetrahydropyrimidin-1(2H)-yl)-1,3-dioxoisoindolin-5-yl)-2,5-diazabicyclo[2.2.1]heptan-2-yl)methyl)piperidin-1-yl)pyridazine-3-carboxamide]
A (0%≤substrate protein remaining %≤80%) | – | – | 30 to 40 | 53 to 60 | O=C1CCN(N2C(=O)c3ccc(N4C5CC4CN(C[C@H]4CC[C@H](n6cc(NC(=O)c7cnn8ccc(N9C[C@H]%10C[C@@H]9CO%10)nc78)c(C(F)F)n6)CC4)C5)cc3C2=O)C(=O)N1 [GT-05242, 5-((1R,4R)-2-oxa-5-azabicyclo[2.2.1]heptan-5-yl)-N-(3-(difluoromethyl)-1-((1r,4R)-4-((6-(2-(2,4-dioxotetrahydropyrimidin-1(2H)-yl)-1,3-dioxoisoindolin-5-yl)-3,6-diazabicyclo[3.1.1]heptan-3-yl)methyl)cyclohexyl)-1H-pyrazol-4-yl)pyrazolo[1,5-a]pyrimidine-3-carboxamide]
A (0%≤substrate protein remaining %≤80%) | – | – | 20 to 30 | 60 to 80 | O=C1CCN(N2C(=O)c3cccc(N4CCC(CN5CCC(n6cc(NC(=O)c7cnn8ccc(N9C[C@H]%10C[C@@H]9CO%10)nc78)c(C(F)F)n6)CC5)CC4)c3C2=O)C(=O)N1 [GT-05285, 5-((1R,4R)-2-oxa-5-azabicyclo[2.2.1]heptan-5-yl)-N-(3-(difluoromethyl)-1-(1-((1-(2-(2,4-dioxotetrahydropyrimidin-1(2H)-yl)-1,3-dioxoisoindolin-4-yl)piperidin-4-yl)methyl)piperidin-4-yl)-1H-pyrazol-4-yl)pyrazolo[1,5-a]pyrimidine-3-carboxamide]
A (0%≤substrate protein remaining %≤80%) | – | – | 10 to 20 | 60 to 80 | CC(C)(O)c1cc2nc(C3CCN(Cc4ccc5c(c4)CN(N4CCC(=O)NC4=O)C5=O)CC3)oc2cc1NC(=O)c1cccc(C(F)(F)F)n1 [GT-05748, N-(2-(1-((2-(2,4-dioxotetrahydropyrimidin-1(2H)-yl)-1-oxoisoindolin-5-yl)methyl)piperidin-4-yl)-5-(2-hydroxypropan-2-yl)benzo[d]oxazol-6-yl)-6-(trifluoromethyl) picolinamide]
A (0%≤substrate protein remaining %≤80%) | – | – | 20 to 30 | 53 to 60 | O=C1CCN(N2Cc3cc(CN4CCC(n5cc(NC(=O)c6cnn7ccc(N8CCOCC8)nc67)c(C(F)F)n5)CC4)ccc3C2=O)C(=O)N1 [GT-05749]
– | – | – | 30 to 40 | 40 to 53 | N#Cc1ccc(O[C@H]2CC[C@H](NC(=O)c3ccc(N4CCC(CN5CC6CCC5CN6c5ccc6c(c5)C(=O)N(N5CCC(=O)NC5=O)C6=O)CC4)nn3)CC2)cc1Cl (stereo partly drawn) [GT-05832, N-((1r,4r)-4-(3-chloro-4-cyanophenoxy)cyclohexyl)-6-(4-((5-(2-(2,4-dioxotetrahydropyrimidin-1(2H)-yl)-1,3-dioxoisoindolin-5-yl)-2,5-diazabicyclo[2.2.2]octan-2-yl)methyl)piperidin-1-yl)pyridazine-3-carboxamide]
– | – | – | 30 to 40 | 20 to 30 | CC1(C)[C@H](NC(=O)c2ccc(N3CCC(CN4CC5CCC4CN5c4ccc5c(c4)C(=O)N(N4CCC(=O)NC4=O)C5=O)CC3)nc2)C(C)(C)[C@H]1Oc1ccc(C#N)c(Cl)c1 (stereo partly drawn) [GT-05834, N-((1r,3r)-3-(3-chloro-4-cyanophenoxy)-2,2,4,4-tetramethylcyclobutyl)-6-(4-((5-(2-(2,4-dioxotetrahydropyrimidin-1(2H)-yl)-1,3-dioxoisoindolin-5-yl)-2,5-diazabicyclo[2.2.2]octan-2-yl)methyl)piperidin-1-yl)nicotinamide]
